Experimental data published in ChEMBL document CHEMBL5608182, “Synthesis and evaluation of neuroactive steroids with novel pharmacophore at C-21 let identify a compound with advantageous PK profile and higher EC50 and Emax as PAM on GABAA receptor” (Eur J Med Chem, 2024).
pEC50, pIC50: −log10 of the molar value.

How the values were obtained:
[1] = molecular target: T1, GABA-A receptor; alpha-1/beta-2/gamma-2 (Homo sapiens, UniProt P14867+P18507+P47870); experiment: Positive allosteric modulation of synaptic alpha1beta2gamma2 GABA-A receptor (unknown origin) transfected in LTK cells assessed as potentiation of GABA-induced peak current amplitude at -80 mV holding potential preincubated for 30 secs followed by GABA stimulation for 2 secs by Q-patch assay; type: cell-based
T1 sequence (P14867 whole entry): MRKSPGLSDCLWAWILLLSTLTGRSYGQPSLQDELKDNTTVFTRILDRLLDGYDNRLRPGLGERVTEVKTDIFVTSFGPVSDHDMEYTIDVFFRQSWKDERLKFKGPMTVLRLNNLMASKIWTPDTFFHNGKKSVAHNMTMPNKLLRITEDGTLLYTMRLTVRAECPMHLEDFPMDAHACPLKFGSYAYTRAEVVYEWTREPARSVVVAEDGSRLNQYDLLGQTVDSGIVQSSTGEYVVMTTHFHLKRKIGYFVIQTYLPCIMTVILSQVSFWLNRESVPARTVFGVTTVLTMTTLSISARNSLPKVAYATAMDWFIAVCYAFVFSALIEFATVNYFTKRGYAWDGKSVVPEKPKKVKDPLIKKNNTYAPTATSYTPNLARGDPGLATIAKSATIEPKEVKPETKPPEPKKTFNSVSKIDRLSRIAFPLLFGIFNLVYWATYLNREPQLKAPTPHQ
T1 sequence (P47870 whole entry): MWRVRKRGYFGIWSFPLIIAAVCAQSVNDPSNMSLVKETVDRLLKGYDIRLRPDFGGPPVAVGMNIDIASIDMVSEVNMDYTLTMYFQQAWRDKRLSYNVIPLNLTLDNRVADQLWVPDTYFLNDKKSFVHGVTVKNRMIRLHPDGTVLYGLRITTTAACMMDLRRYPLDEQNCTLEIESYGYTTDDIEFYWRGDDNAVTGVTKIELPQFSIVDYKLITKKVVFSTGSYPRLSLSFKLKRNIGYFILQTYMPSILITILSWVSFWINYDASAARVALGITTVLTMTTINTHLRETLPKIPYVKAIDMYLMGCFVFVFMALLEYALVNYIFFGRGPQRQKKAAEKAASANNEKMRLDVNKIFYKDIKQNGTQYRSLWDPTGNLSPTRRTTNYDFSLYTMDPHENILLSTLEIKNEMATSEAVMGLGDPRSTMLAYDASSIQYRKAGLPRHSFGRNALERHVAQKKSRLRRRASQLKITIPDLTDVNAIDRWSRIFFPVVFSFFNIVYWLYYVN
T1 sequence (P18507 whole entry): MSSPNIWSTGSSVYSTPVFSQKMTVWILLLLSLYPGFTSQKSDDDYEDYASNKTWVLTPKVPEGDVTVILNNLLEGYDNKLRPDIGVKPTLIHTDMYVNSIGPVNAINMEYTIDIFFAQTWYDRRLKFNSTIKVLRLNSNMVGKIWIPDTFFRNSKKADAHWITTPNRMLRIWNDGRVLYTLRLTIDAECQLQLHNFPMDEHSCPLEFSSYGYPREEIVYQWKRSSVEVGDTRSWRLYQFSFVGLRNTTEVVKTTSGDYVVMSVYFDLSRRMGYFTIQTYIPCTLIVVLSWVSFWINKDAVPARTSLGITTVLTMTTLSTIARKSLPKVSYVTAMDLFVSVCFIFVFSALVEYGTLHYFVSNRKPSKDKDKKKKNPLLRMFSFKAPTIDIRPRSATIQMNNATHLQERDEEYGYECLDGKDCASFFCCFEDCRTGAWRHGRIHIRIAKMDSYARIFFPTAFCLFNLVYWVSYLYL

[2] = molecular target: T2, Cytochrome P450 2B6 (Homo sapiens, UniProt P20813); experiment: Inhibition of CYP2B6 (unknown origin); type: ADME
T2 sequence (P20813 whole entry): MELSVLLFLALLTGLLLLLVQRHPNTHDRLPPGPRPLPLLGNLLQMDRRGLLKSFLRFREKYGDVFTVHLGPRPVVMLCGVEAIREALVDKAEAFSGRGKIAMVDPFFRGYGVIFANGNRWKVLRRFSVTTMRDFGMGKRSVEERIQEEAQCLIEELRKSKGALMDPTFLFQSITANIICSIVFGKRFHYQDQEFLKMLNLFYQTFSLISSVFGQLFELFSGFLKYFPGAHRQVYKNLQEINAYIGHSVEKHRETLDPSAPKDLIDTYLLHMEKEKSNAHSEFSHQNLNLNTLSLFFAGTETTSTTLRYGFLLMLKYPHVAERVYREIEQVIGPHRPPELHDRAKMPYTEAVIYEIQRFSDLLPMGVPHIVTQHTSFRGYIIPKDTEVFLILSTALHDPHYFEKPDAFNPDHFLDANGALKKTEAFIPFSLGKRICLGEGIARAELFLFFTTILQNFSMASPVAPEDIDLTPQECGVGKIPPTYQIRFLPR

[3] = tested on: Rattus norvegicus; experiment: Antiseizure activity in PTZ-induced male Sprague-Dawley rat acute seizure model assessed as increase in latency to tonic seizures at 24.4 micromol/kg, po pretreated for 1 hr followed by PTZ addition and measured after 60 mins (reference value: 77 +/- 13.4 sec); type: functional; conditions: dose 24.4 µmol/kg, time 120 min, 2 h
[4] = Toxicity in male Sprague-Dawley rat assessed as risk of consciousness loss by measuring time for first loss of righting reflex at 9.8 micromol/kg, ip measured within 4 hrs; type: organism-based; conditions: in vivo, dose 9.8 µmol/kg
[5] = molecular target: GABA-A receptor; anion channel; experiment: Inhibition of [35S]TBPS binding to GABA-A receptor in Sprague-Dawley rat brain cortical membrane incubated for 90 mins by liquid scintillation spectrometry; type: cell membranes, Cortex
[6] = tested on: Rattus norvegicus; experiment: Antiseizure activity in PTZ-induced male Sprague-Dawley rat acute seizure model assessed as increase in latency to tonic seizures at 11.6 micromol/kg, po pretreated for 2 hrs followed by PTZ addition and measured after 60 mins (reference value: 77 +/- 13.4 sec); type: functional; conditions: dose 11.6 µmol/kg, time 180 min, 3 h
[7] = tested on: Rattus norvegicus; experiment: Antiseizure activity in PTZ-induced male Sprague-Dawley rat acute seizure model assessed as increase in latency to tonic seizures at 23.2 micromol/kg, po pretreated for 2 hrs followed by PTZ addition and measured after 60 mins (reference value: 77 +/- 13.4 sec); type: functional; conditions: dose 23.2 µmol/kg, time 180 min, 3 h
[8] = Genotoxicity in Salmonella typhimurium TA97 assessed as induction of reverse mutation in absence of rat liver S9 fraction; type: toxicity; conditions: salmonella enterica subsp. enterica serovar typhimurium
[9] = Genotoxicity in Salmonella typhimurium TA98 assessed as induction of reverse mutation in absence of rat liver S9 fraction; type: toxicity; conditions: salmonella enterica subsp. enterica serovar typhimurium
[10] = Genotoxicity in Salmonella typhimurium TA100 assessed as induction of reverse mutation in presence of rat liver S9 fraction; type: toxicity, subcellular; conditions: salmonella enterica subsp. enterica serovar typhimurium
[11] = Genotoxicity in Salmonella typhimurium TA100 assessed as induction of reverse mutation in absence of rat liver S9 fraction; type: toxicity; conditions: salmonella enterica subsp. enterica serovar typhimurium
[12] = Toxicity in male Sprague-Dawley rat assessed as loss of righting reflex at 23.3 micromol/kg, ip measured within 4 hrs; type: organism-based; conditions: in vivo, dose 23.3 µmol/kg
[13] = Toxicity in male Sprague-Dawley rat assessed as risk of consciousness loss by measuring time for first loss of righting reflex at 36.6 micromol/kg, ip measured within 4 hrs; type: organism-based; conditions: in vivo, dose 36.6 µmol/kg

SMILES | pEC50 [1] | pIC50 [2] | Time [3] [s] | Time [4] [min] | pIC50 [5] | Time [6] [s] | Time [7] [s] | Activity [8] | Activity [9] | Activity [10] | Activity [11] | Activity [12] | Time [13] [min]
C[C@@]1(O)CC[C@H]2[C@H](CC[C@@H]3[C@@H]2CC[C@]2(C)[C@@H](C(=O)Cn4cc(C#N)cn4)CC[C@@H]32)C1 [ZURANOLONE] | 6.82 | < 4.52 | 2850 | 46 | 8.15 |  |  |  |  |  |  |  | 
C[C@@]1(O)CC[C@H]2[C@H](CC[C@@H]3[C@@H]2CC[C@]2(C)[C@@H](C(=O)Cn4cnn(-c5cc(F)nc(F)c5)c4=O)CC[C@@H]32)C1 | 6.85 | < 4.52 |  |  |  | 2686 | 3600 | Non-Toxic | Non-Toxic | Non-Toxic | Non-Toxic | Non-Toxic | 57
